Test results reported in patent publication US20240158446A1, “CYCLIC COMPOUND HAVING SELECTIVE INHIBITORY ACTION ON KRAS OVER HRAS AND NRAS” (CHUGAI SEIYAKU KABUSHIKI KAISHA, priority 2021, published 2024).
Where a SMILES comes first, the peptide text is derived from it. Bridges are numbered along the chain shown (N, C = ends). [ ]: non-standard residue; d: D form. The star is where a group is joined. hPhe(3-Cl-4-CF3) = N[C@@H](CCc1ccc(C(F)(F)F)c(Cl)c1)C(=O)O; NPrPhe(4-CF3) = CCCN[C@@H](Cc1ccc(C(F)(F)F)cc1)C(=O)O; NMeAbu(4,4,4-F3) = CN[C@@H](CC(F)(F)F)C(=O)O; NMeGly(cPent) = CN[C@H](C(=O)O)C1CCCC1; Pro(4,4-F2) = O=C(O)[C@@H]1CC(F)(F)CN1; NMeGly(cBu) = CN[C@H](C(=O)O)C1CCC1; NMeD = CN[C@@H](CC(=O)O)C(=O)O; NMeL = CN[C@@H](CC(C)C)C(=O)O; NMeNva = CCC[C@H](NC)C(=O)O; NMeAbu = CC[C@H](NC)C(=O)O; Morpholide = C1CN(*)CCO1; NMeA = CN[C@@H](C)C(=O)O; Ac5c = NC1(C(=O)O)CCCC1; Aze = O=C(O)[C@@H]1CCN1; Ac4c = NC1(C(=O)O)CCC1; Sar = CNCC(=O)O

Assays:
[1] = target: GDP-bound KRAS wild-type protein (Homo sapiens, UniProt P01116); test: Binding to KRAS by surface plasmon resonance (SPR), Single Cycle Kinetics; conditions: SPR Single Cycle Kinetics, GDP-bound KRAS wild-type protein, 1:1 binding model; read-out: KRAS KD
[2] = target: GDP-bound HRAS wild-type protein (Homo sapiens, UniProt P01112); test: Binding to HRAS by surface plasmon resonance (SPR), Single Cycle Kinetics; conditions: SPR, GDP-bound HRAS wild-type protein vs GDP-bound KRAS wild-type protein
[3] = target: GDP-bound NRAS wild-type protein (Homo sapiens, UniProt P01111); test: Binding to NRAS by surface plasmon resonance (SPR), Single Cycle Kinetics; conditions: SPR, GDP-bound NRAS wild-type protein vs GDP-bound KRAS wild-type protein
GDP-bound NRAS wild-type protein, sequence (P01111 whole entry): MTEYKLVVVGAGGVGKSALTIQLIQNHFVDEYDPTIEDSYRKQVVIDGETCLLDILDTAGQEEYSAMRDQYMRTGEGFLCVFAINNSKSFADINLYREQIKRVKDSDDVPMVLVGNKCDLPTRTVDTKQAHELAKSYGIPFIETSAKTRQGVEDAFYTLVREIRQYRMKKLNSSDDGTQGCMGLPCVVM

GDP-bound KRAS wild-type protein, sequence (P01116 whole entry): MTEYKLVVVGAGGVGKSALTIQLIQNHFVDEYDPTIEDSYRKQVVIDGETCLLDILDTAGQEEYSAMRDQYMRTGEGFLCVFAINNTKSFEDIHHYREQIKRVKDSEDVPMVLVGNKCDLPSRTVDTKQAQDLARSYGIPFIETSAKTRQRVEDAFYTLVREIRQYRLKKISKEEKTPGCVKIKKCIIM
GDP-bound HRAS wild-type protein, sequence (P01112 whole entry): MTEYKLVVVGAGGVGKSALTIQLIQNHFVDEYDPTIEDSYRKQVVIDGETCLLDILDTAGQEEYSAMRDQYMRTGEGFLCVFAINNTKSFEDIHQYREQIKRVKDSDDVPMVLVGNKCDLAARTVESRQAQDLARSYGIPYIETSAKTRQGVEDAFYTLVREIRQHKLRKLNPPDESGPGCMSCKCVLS

| SMILES | Kd [1] [nM] | HRAS/KRAS (ratio of KD value for HRAS to KD value for KRAS) [2] | NRAS/KRAS (ratio of KD value for NRAS to KD value for KRAS) [3] |
| --- | --- | --- | --- |
| CCCN1C(=O)[C@@H]2CCN2C(=O)[C@H](C)N(C)C(=O)[C@H]([C@@H](C)CC)NC(=O)[C@H](C2CCC2)N(C)C(=O)C[C@@H](C(=O)N2CCOCC2)N(C)C(=O)[C@H](C2CCCC2)N(C)C(=O)C2(CCCC2)NC(=O)[C@@H]2CCCN2C(=O)[C@H](CCc2ccc(C(F)(F)F)c(Cl)c2)NC(=O)CN(C)C(=O)[C@@H]1Cc1ccc(C(F)(F)F)cc1 [PP0192] ([NMeGly(cBu)]I[NMeA][Aze][NPrPhe(4-CF3)][Sar][hPhe(3-Cl-4-CF3)]P[Ac5c][NMeGly(cPent)][NMeD]-Morpholide; lactam N-11) | 0.19 | B (a compound having 3 or more and less than 10 is denoted as B) | C (A compound having a KD ratio of 0.1 or more and less than 3 is denoted as C) |
| CCC[C@H]1C(=O)N[C@@H]([C@@H](C)CC)C(=O)N(C)[C@@H](C)C(=O)N2CC[C@H]2C(=O)N(CCC)[C@@H](Cc2ccc(C(F)(F)F)cc2)C(=O)N(C)CC(=O)N[C@@H](CCc2ccc(C(F)(F)F)c(Cl)c2)C(=O)N2CCC[C@H]2C(=O)NC2(CCCC2)C(=O)N(C)[C@@H](C2CCCC2)C(=O)N(C)[C@H](C(=O)N2CCOCC2)CC(=O)N1C [PP0193] ([NMeNva]I[NMeA][Aze][NPrPhe(4-CF3)][Sar][hPhe(3-Cl-4-CF3)]P[Ac5c][NMeGly(cPent)][NMeD]-Morpholide; lactam N-11) | 0.17 | C (A compound having a KD ratio of 0.1 or more and less than 3 is denoted as C) | C (A compound having a KD ratio of 0.1 or more and less than 3 is denoted as C) |
| CCCN1C(=O)[C@@H]2CCN2C(=O)[C@H](C)N(C)C(=O)[C@H]([C@@H](C)CC)NC(=O)[C@H](CC)N(C)C(=O)C[C@@H](C(=O)N2CCOCC2)N(C)C(=O)[C@H](C2CCCC2)N(C)C(=O)C2(CCCC2)NC(=O)[C@@H]2CCCN2C(=O)[C@H](CCc2ccc(C(F)(F)F)c(Cl)c2)NC(=O)CN(C)C(=O)[C@@H]1Cc1ccc(C(F)(F)F)cc1 [PP0194] ([NMeAbu]I[NMeA][Aze][NPrPhe(4-CF3)][Sar][hPhe(3-Cl-4-CF3)]P[Ac5c][NMeGly(cPent)][NMeD]-Morpholide; lactam N-11) | 0.09 | B (a compound having 3 or more and less than 10 is denoted as B) | C (A compound having a KD ratio of 0.1 or more and less than 3 is denoted as C) |
| CCCN1C(=O)CN(C)C(=O)CN(C)C(=O)[C@H]([C@@H](C)CC)NC(=O)[C@H](CC(C)C)N(C)C(=O)C[C@@H](C(=O)N2CCOCC2)N(C)C(=O)[C@H](C2CCCC2)N(C)C(=O)C2(CCCC2)NC(=O)[C@@H]2CC(F)(F)CN2C(=O)[C@H](CCc2ccc(C(F)(F)F)c(Cl)c2)NC(=O)CN(C)C(=O)[C@@H]1Cc1ccc(C(F)(F)F)cc1 [PP0195] ([NMeL]I[Sar][Sar][NPrPhe(4-CF3)][Sar][hPhe(3-Cl-4-CF3)][Pro(4,4-F2)][Ac5c][NMeGly(cPent)][NMeD]-Morpholide; lactam N-11) | 0.091 | C (A compound having a KD ratio of 0.1 or more and less than 3 is denoted as C) | B (a compound having 3 or more and less than 10 is denoted as B) |
| CCCN1C(=O)[C@@H]2CCN2C(=O)[C@H](C)N(C)C(=O)[C@H]([C@@H](C)CC)NC(=O)[C@H](CC(C)C)N(C)C(=O)C[C@@H](C(=O)N2CCOCC2)N(C)C(=O)[C@H](C2CCCC2)N(C)C(=O)C2(CCCC2)NC(=O)[C@@H]2CC(F)(F)CN2C(=O)[C@H](CCc2ccc(C(F)(F)F)c(Cl)c2)NC(=O)CN(C)C(=O)[C@@H]1Cc1ccc(C(F)(F)F)cc1 [PP0196] ([NMeL]I[NMeA][Aze][NPrPhe(4-CF3)][Sar][hPhe(3-Cl-4-CF3)][Pro(4,4-F2)][Ac5c][NMeGly(cPent)][NMeD]-Morpholide; lactam N-11) | 0.15 | C (A compound having a KD ratio of 0.1 or more and less than 3 is denoted as C) | C (A compound having a KD ratio of 0.1 or more and less than 3 is denoted as C) |
| CCCN1C(=O)CN(C)C(=O)CN(C)C(=O)[C@H]([C@@H](C)CC)NC(=O)[C@H](CC(C)C)N(C)C(=O)C[C@@H](C(=O)N2CCOCC2)N(C)C(=O)[C@H](C2CCCC2)N(C)C(=O)C2(CCC2)NC(=O)[C@@H]2CCCN2C(=O)[C@H](CCc2ccc(C(F)(F)F)c(Cl)c2)NC(=O)CN(C)C(=O)[C@@H]1Cc1ccc(C(F)(F)F)cc1 [PP0197] ([NMeL]I[Sar][Sar][NPrPhe(4-CF3)][Sar][hPhe(3-Cl-4-CF3)]P[Ac4c][NMeGly(cPent)][NMeD]-Morpholide; lactam N-11) | 0.13 | C (A compound having a KD ratio of 0.1 or more and less than 3 is denoted as C) | B (a compound having 3 or more and less than 10 is denoted as B) |
| CCCN1C(=O)[C@@H]2CCN2C(=O)[C@H](C)N(C)C(=O)[C@H]([C@@H](C)CC)NC(=O)[C@H](CC(C)C)N(C)C(=O)C[C@@H](C(=O)N2CCOCC2)N(C)C(=O)[C@H](C2CCCC2)N(C)C(=O)C2(CCC2)NC(=O)[C@@H]2CCCN2C(=O)[C@H](CCc2ccc(C(F)(F)F)c(Cl)c2)NC(=O)CN(C)C(=O)[C@@H]1Cc1ccc(C(F)(F)F)cc1 [PP0198] ([NMeL]I[NMeA][Aze][NPrPhe(4-CF3)][Sar][hPhe(3-Cl-4-CF3)]P[Ac4c][NMeGly(cPent)][NMeD]-Morpholide; lactam N-11) | 0.19 | B (a compound having 3 or more and less than 10 is denoted as B) | C (A compound having a KD ratio of 0.1 or more and less than 3 is denoted as C) |
| CCCN1C(=O)CN(C)C(=O)CN(C)C(=O)[C@H]([C@@H](C)CC)NC(=O)[C@H](CC(F)(F)F)N(C)C(=O)C[C@@H](C(=O)N2CCOCC2)N(C)C(=O)[C@H](C2CCCC2)N(C)C(=O)C2(CCCC2)NC(=O)[C@@H]2CC(F)(F)CN2C(=O)[C@H](CCc2ccc(C(F)(F)F)c(Cl)c2)NC(=O)CN(C)C(=O)[C@@H]1Cc1ccc(C(F)(F)F)cc1 [PP0199] ([NMeAbu(4,4,4-F3)]I[Sar][Sar][NPrPhe(4-CF3)][Sar][hPhe(3-Cl-4-CF3)][Pro(4,4-F2)][Ac5c][NMeGly(cPent)][NMeD]-Morpholide; lactam N-11) | 0.13 | C (A compound having a KD ratio of 0.1 or more and less than 3 is denoted as C) | B (a compound having 3 or more and less than 10 is denoted as B) |
| CCCN1C(=O)CN(C)C(=O)CN(C)C(=O)[C@H]([C@@H](C)CC)NC(=O)[C@H](C2CCC2)N(C)C(=O)C[C@@H](C(=O)N2CCOCC2)N(C)C(=O)[C@H](C2CCCC2)N(C)C(=O)C2(CCCC2)NC(=O)[C@@H]2CC(F)(F)CN2C(=O)[C@H](CCc2ccc(C(F)(F)F)c(Cl)c2)NC(=O)CN(C)C(=O)[C@@H]1Cc1ccc(C(F)(F)F)cc1 [PP0200] ([NMeGly(cBu)]I[Sar][Sar][NPrPhe(4-CF3)][Sar][hPhe(3-Cl-4-CF3)][Pro(4,4-F2)][Ac5c][NMeGly(cPent)][NMeD]-Morpholide; lactam N-11) | 0.22 | C (A compound having a KD ratio of 0.1 or more and less than 3 is denoted as C) | C (A compound having a KD ratio of 0.1 or more and less than 3 is denoted as C) |
| CCC[C@H]1C(=O)N[C@@H]([C@@H](C)CC)C(=O)N(C)CC(=O)N(C)CC(=O)N(CCC)[C@@H](Cc2ccc(C(F)(F)F)cc2)C(=O)N(C)CC(=O)N[C@@H](CCc2ccc(C(F)(F)F)c(Cl)c2)C(=O)N2CC(F)(F)C[C@H]2C(=O)NC2(CCCC2)C(=O)N(C)[C@@H](C2CCCC2)C(=O)N(C)[C@H](C(=O)N2CCOCC2)CC(=O)N1C [PP0201] ([NMeNva]I[Sar][Sar][NPrPhe(4-CF3)][Sar][hPhe(3-Cl-4-CF3)][Pro(4,4-F2)][Ac5c][NMeGly(cPent)][NMeD]-Morpholide; lactam N-11) | 0.06 | C (A compound having a KD ratio of 0.1 or more and less than 3 is denoted as C) | B (a compound having 3 or more and less than 10 is denoted as B) |
| CCCN1C(=O)CN(C)C(=O)CN(C)C(=O)[C@H]([C@@H](C)CC)NC(=O)[C@H](CC)N(C)C(=O)C[C@@H](C(=O)N2CCOCC2)N(C)C(=O)[C@H](C2CCCC2)N(C)C(=O)C2(CCCC2)NC(=O)[C@@H]2CC(F)(F)CN2C(=O)[C@H](CCc2ccc(C(F)(F)F)c(Cl)c2)NC(=O)CN(C)C(=O)[C@@H]1Cc1ccc(C(F)(F)F)cc1 [PP0202] ([NMeAbu]I[Sar][Sar][NPrPhe(4-CF3)][Sar][hPhe(3-Cl-4-CF3)][Pro(4,4-F2)][Ac5c][NMeGly(cPent)][NMeD]-Morpholide; lactam N-11) | 0.076 | C (A compound having a KD ratio of 0.1 or more and less than 3 is denoted as C) | B (a compound having 3 or more and less than 10 is denoted as B) |
| CCCN1C(=O)[C@@H]2CCN2C(=O)[C@H](C)N(C)C(=O)[C@H]([C@@H](C)CC)NC(=O)[C@H](CC(F)(F)F)N(C)C(=O)C[C@@H](C(=O)N2CCOCC2)N(C)C(=O)[C@H](C2CCCC2)N(C)C(=O)C2(CCCC2)NC(=O)[C@@H]2CC(F)(F)CN2C(=O)[C@H](CCc2ccc(C(F)(F)F)c(Cl)c2)NC(=O)CN(C)C(=O)[C@@H]1Cc1ccc(C(F)(F)F)cc1 [PP0203] ([NMeAbu(4,4,4-F3)]I[NMeA][Aze][NPrPhe(4-CF3)][Sar][hPhe(3-Cl-4-CF3)][Pro(4,4-F2)][Ac5c][NMeGly(cPent)][NMeD]-Morpholide; lactam N-11) | 0.094 | C (A compound having a KD ratio of 0.1 or more and less than 3 is denoted as C) | C (A compound having a KD ratio of 0.1 or more and less than 3 is denoted as C) |
